From patent publication US20230003721A1, “MITOTHERAPEUTICS FOR THE TREATMENT OF BRAIN DISORDERS” (The University of Florida Research Foundation, Inc., priority 2019, published 2023)

test system: primary neurons; test: not given; settings: 75 μM peroxide, 12.5 μM compound, 48 h

Compound	protection from peroxide (PO) induced mitochondrial fragmentation
O=C(/C=C/c1ccccc1)c1ccc(O)cc1 [4′-HYDROXYCHALCONE]	fully protected

test system: isolated forebrain mitochondria; test: ATP production of isolated mitochondria (luciferase-based kinetic assay); assay type: biochemical, mouse; settings: 12 μM, starting 20 min after addition; DMSO 22498±358
Protocol: Isolation of mitochondria. For the ATP synthesis experiments of FIG. 6, forebrains from P0 pups were dissected as described above. 2×10^7 cells were harvested for high-purity mitochondrial isolation using the Qiagen QProteome kit. The mitochondrial pellet was resuspended in 500 μl mitochondria storage buffer (provided by kit) and kept on ice until further use.
ATP production of isolated forebrain mitochondria of P0 pups was measured by ATP Determination Kit (Molecular Probes). […] The reactions were initiated by the addition of 1 mM ADP (deprived of ATP contamination by adding 3 U/ml hexokinase to 10 mM of ADP in 50 mM Tris-HCl, 20 mM MgCl2 and 22 mM glucose, incubating the solution at 37° C. for 1 hr and heat inactivating the hexokinase at 100° C. for 3 min). Luminescence was recorded every 15-30 sec for 1 hr at 580±40 nm.

Compound	ATP production kinetics, amplitude of single exponential fit
O=C(/C=C/c1ccccc1)c1ccc(O)cc1O [2′,4′-DIHYDROXYCHALCONE]	9853±132
O=C(/C=C/c1ccccc1)c1ccc(O)cc1 [4′-HYDROXYCHALCONE]	6121±99

same assay, conditions: 12.5 μM, within the 45-min measurement period, vs DMSO

Compound	ATP production of isolated mitochondria (direct effect)
O=C(/C=C/c1ccccc1)c1ccc(O)cc1O [2′,4′-DIHYDROXYCHALCONE]	decreased
O=C(/C=C/c1ccccc1)c1ccc(O)cc1 [4′-HYDROXYCHALCONE]	decreased

test system: primary forebrain neurons; test: cells; settings: Mus musculus, Neuron, 24 h, read-out: Elongation (Dend Mt length) EC50
Protocol: Primary forebrain cell culture and maintenance. Forebrains of P0 Mt or Mt/Ai14 pups without olfactory bulbs and meninges were collected and placed in ice cold Ca^2+ and Mg^2+ free HBSS supplemented with 2 μg/ml gentamicin, 25 mM D-glucose, 1 mM pyruvate and 20 mM HEPES. Brain tissue was digested with 0.6 mg/ml papain at 37° C. for 20 min. Forebrains were washed with plating media [Neurobasal (Gibco), 5% FBS, 4 mM GlutaMAX (Gibco), 2 μg/ml gentamicin]. The tissue was gently triturated, allowed to settle and the supernatant was filtered through a 40 μm mesh-sized cell strainer. Cells were centrifuged at 420×g for 4 min and resuspended in plating media. 15,000 cells per well were plated with 2×10^8 viral particles/ml onto black Greiner μClear (Cat #781946) or Ultra-Low Base Aurora with evaporation barrier (Cat #ABE201201B) 384-well plates (80 μl/well) pre-coated with poly-D-lysine for the primary screen and rescreen, respectively. Plating and media changes were performed using an automated Biomek FX^P liquid handling workstation. Four hr after plating, 75% of the plating media was replaced by feeding media [Neurobasal-A (Gibco), 4 mM GlutaMAX (Gibco), 2 μg/ml gentamicin, 2% B27 (Gibco)]. At DIV4, 50% of the media was exchanged with fresh feeding media supplemented with 16 μM 5-Fluoro-2′-deoxyuridine (FUdR) to prevent glial cell over-growth. At DIV8 and DIV12, additional 50% media changes were made without FUdR. Cells were maintained at 37° C. and 5% CO2; plates were topped with Breathe-Easy adhesive membranes (Greiner plates) to minimize evaporation.
Compounds and compound transfer.
Imaging. Images were captured using a GE Incell 6000 system (60× objective, 0.95 NA, 16-bit images) equipped with environmental control (37° C., 5% CO2). Mt-GFP (green channel) was imaged by confocal imaging (3 slices, Δz=0.7 μm, aperture=1.0 AU, λexc=488 nm, λem=515-535 nm). Cyto-tdTomato (red channel) and MitoTracker Orange (red channel) were imaged using confocal mode (3 slices, Δz=0.7 μm, aperture=1.0 AU, λexc=561 nm, λem=569-641 nm, MitoTracker Orange) or with widefield mode (Cyto-tdTomato). TMRM imaged for the co-localization experiments with Mt-GFP was imaged using the confocal mode (3 slices, […] aperture=1.0, λexc=488, λem=569-641 nm). For the live-dead assay, primary neurons were imaged with a 20× (widefield mode, NA 0.45) objective using λexc=561 nm and λem=569-641 nm for the propidium iodide stained dead cells (red channel), and λexc=488 nm and λem=515-535 nm for the fluorescein diacetate stained live cells (green channel). 10 fields were collected from each well, and 4 wells were imaged/condition in the live-dead assay. For all other experiments, 4 fields/well were imaged unless otherwise stated.
Automated data analysis pipeline. Most experiments utilized only Mt-GFP; some utilized both Mt-GFP and Cyto-tdTomato. The Z-projected images were preprocessed using a custom Fiji macro. For preprocessing of Mt-GFP images: background was subtracted (rolling ball, radius=3), images were median filtered (radius=1) and somatic mitochondria were removed. For removal of the somatic mitochondria, they were first segmented and then a somatic mitochondrial mask overlaid on the image.

Compound	EC50 [µM]
O=C(/C=C/c1ccccc1)c1ccc(O)cc1 [4′-HYDROXYCHALCONE]	2.3

same assay, conditions: Mus musculus, Neuron, 24 h, read-out: Health (Ax Mt Circularity) EC50

Compound	EC50 [µM]
O=C(/C=C/c1ccccc1)c1ccc(O)cc1O [2′,4′-DIHYDROXYCHALCONE]	6.7
O=C(/C=C/c1ccccc1)c1ccc(O)cc1 [4′-HYDROXYCHALCONE]	5.8

same assay, conditions: Mus musculus, Neuron, 24 h, read-out: Mt Content (Dend Mt CA) EC50

Compound	EC50 [µM]
O=C(/C=C/c1ccccc1)c1ccc(O)cc1 [4′-HYDROXYCHALCONE]	4.8

same assay, conditions: Mus musculus, Neuron, 24 h, read-out: Sprouting (Neurite Area) EC50

Compound	EC50 [µM]
O=C(/C=C/c1ccccc1)c1ccc(O)cc1O [2′,4′-DIHYDROXYCHALCONE]	> 25
O=C(/C=C/c1ccccc1)c1ccc(O)cc1 [4′-HYDROXYCHALCONE]	0.9

same assay, conditions: rescreen, 12.5 μM, 24 h, vs DMSO wells

Compound	Dendritic Mt CA [robust Z-scores]	Neurite Area [robust Z-scores]
O=C(/C=C/c1ccccc1)c1ccc(O)cc1O [2′,4′-DIHYDROXYCHALCONE]	3.39	0.42
O=C(/C=C/c1ccccc1)c1ccc(O)cc1 [4′-HYDROXYCHALCONE]	5.11	2.21

test system: primary forebrain neurons; test: not given; settings: 25 μM glutamate, 48 h

Compound	live:dead cell ratio in the presence of toxic concentrations of glutamate
O=C(/C=C/c1ccccc1)c1ccc(O)cc1O [2′,4′-DIHYDROXYCHALCONE]	offered protection
O=C(/C=C/c1ccccc1)c1ccc(O)cc1 [4′-HYDROXYCHALCONE]	offered protection

same assay, conditions: 48 h; peroxide 75 μM, glutamate 25 μM, Aβ(1-42) 10 μM

Compound	death among neurons compared to control
N[C@@H](CCC(=O)O)C(=O)[O-].[Na+] [glutamate, monosodium glutamate]	42%
Aβ(1-42): toxic amyloid-β peptide fragment, oligomeric, HFIP-treated peptide (BACHEM)	no detectable death

same assay, conditions: 48 h; peroxide 75 μM, glutamate 25 μM; control 0.57

Compound	live cell ratio (live cells/live+dead cells)
N[C@@H](CCC(=O)O)C(=O)[O-].[Na+] [glutamate, monosodium glutamate]	0.26
